Experimental data as given in patent publication EP1067939B1, “USE OF STEROIDAL ALKALOID DERIVATIVES AS INHIBITORS OF HEDGEHOG PROTEIN SIGNALING PATHWAYS” (The Johns Hopkins University, priority 1998, dated 1999).
Where two headings read alike, the source gives them in different places.

Legend:
[1] = tested on: Shh-N; experiment: Intermediate neural plate explant response to exogenous Shh-N protein; type: cell-based, chick; conditions: for concentration that inhibits the repression of Pax7 expression by 2 nM Shh-N: 20 hours; for doses at which HNF3β and Isl-1 induction are completely blocked / intermediate levels at which induction of HNF3β is blocked while induction of Isl-1 is maintained or expanded: 25 nM Shh-N
[2] = biological target: T1, Shh (Mus musculus, UniProt Q62226); experiment: Shh autoprocessing in stably transfected HK293 cells (immunoblot); type: cell-based; conditions: added during the 24-hour induction period; doses up to 5-fold higher than those required to completely inhibit Shh signaling
T1 construct: expressed in transfected cells; host or cells: HK293 cells, Ecdysone-Inducible Mammalian Expression System (Invitrogen)
T1 sequence (Q62226 25-437): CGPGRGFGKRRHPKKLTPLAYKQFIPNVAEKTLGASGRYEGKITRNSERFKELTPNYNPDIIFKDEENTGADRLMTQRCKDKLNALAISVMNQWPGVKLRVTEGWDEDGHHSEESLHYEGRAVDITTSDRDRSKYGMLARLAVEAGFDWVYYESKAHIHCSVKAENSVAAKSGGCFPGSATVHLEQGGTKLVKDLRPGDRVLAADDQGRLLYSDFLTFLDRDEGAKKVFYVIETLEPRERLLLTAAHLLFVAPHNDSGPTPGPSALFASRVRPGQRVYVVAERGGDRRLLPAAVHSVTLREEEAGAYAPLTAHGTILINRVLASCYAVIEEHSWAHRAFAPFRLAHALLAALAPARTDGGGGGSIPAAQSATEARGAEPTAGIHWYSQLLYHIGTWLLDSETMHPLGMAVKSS
Excerpt: To examine potential effects of these compounds on Shh processing we utilized HK293 cells cultured in lipid-depleted serum and carrying a stable integrated construct for expression of Shh under ecdysone-inducible control (47). Shh protein expression in these cells can be induced by addition of muristerone A, an ecdysone analog.
• 1. M. Hammerschmidt, A. Brook, A. P. McMahon, Trends Genet, 13, 14-21 (1997). • 2. C. Chiang, et al., Nature, 383,407-413 (1996). • 3. Y. Tanabe, T. M. Jessell, Science 274, 1115-1123 (1996). • 4. T. P. Yamaguchi, Curr. Opin. Genet. Dev. 7, 513-518 (1997). • 5. N. Shubin, C. Tabin, S. Carroll, Nature 388, 639-648 (1997). • 6. A. E. Oro, et al., Science 276, 817-821 (1997). • 7. M. M. Cohen, K. K. Sulik, J. Craniofac. Genet. Deve. Biol. 12, 196-244 (1992). • 8. E. Belloni, et al., Nature Genet. 14, 353-356 (1996). • 9. E. Roessler, et al., Nature Genet. 14, 357-360 (1996). • 10. J. A. Porter, et al., Nature 374, 363-366 (1995). • 11. J. A. Porter, K. E. Young, P. A. Beacy, Science 274, 255-259 (1996b). • 12. J. J. Lee, et al., Science 266, 1528-1537 (1994). • 13. J. A. Porter, et al., Cell 86, 21-34 (1996a). • 14. C. Roux, Arch. Franc. Pediatr. 21, 451-464 (1964). • 15. C. Roux, C. R. Soc. Biol. 160, 1353-1357 (1966). • 16. D. B. Dehart, L. Lanoue, G. S. Tinit, K. K. Sulik, Am J. Med. Genet. 68, 328-337 (1997). • 17. M. Kraml, J. F. Bagli, D. Dvornik, Biochem. and Biophysical Res. Com. 15, 455-457 (1964). • 18. J. Avigan, D. Steinberg, H. E. Vroman, M. J. Thompson, E. Mosettig, J. Biol. Chem 235, 3123-3126 (1960). • 19. R. B. Clayton, A. N. Nelson, I. D. Frantz Jr., J. Lipid Res. 4, 166-178 (1963). • 20. J. Aufenanger, J. Pill, K. Stegmeier, F. H. Schmidt, Horm. Metabol. Res. 17, 612-613 (1986). • 21. […] G. Popjak, A. Meenean, E. J. Parish, W. D. Nes, J. Biol. Chem 264,6230-6238 (1989). • 23. H. Yoshikawa, Brain Deve. 13, 115-120 (1991). • 24. R. I. Kelley, et al., Am. J. Of Med. Gen. 66, 478-484 (1996). • 25. G. S. Tint, et al., New England Journal of Medicine 330, 107-113 (1994). • 26. T.E. Willnow, et al., Proc. Natl. Acad. Sci USA 93, 8460-8464 (1996). • 27. S. Stefansson, D. A. Chappell, K. M. Argraves, D. K. Strickland, W. S. Argraves, J. Biol. Chem. 270, 19417-19421 (1995). • 28. W. Binns, L. F. James, J. L. Shupe, G. Everett, Am. J. Vet. Res. 24, 1164-1174 (1963). • 29. R. F. Keeler, W. Binns, Teratology 1, 5-10 (1968). • 30. P. A. Beachy, et al., CSH Symp. Quant. Biol. 62, in press (1997). • 31. E. D. Carstea, et al., Science 277, 228-231 (1997). • 32. S. K. Loftus, et al., Science 277, 232-235 […]. • 33. L. V. Goodrich, L. Milenkovic, K. M. Higgins, M. P. Scott, Science 277, 1109-1113 (1997). • 34. H. Kumagai, K. T. Chun, R. D. Simoni, J. Biol. Chem. 270, 19107-19113 (1995). • 35. G. Gil, J. R. Faust, D. J. Chin, J. L. Goldstien, M. S. Brown, Cell 41, 249-258 (1985). • 36. X. Hua, A. Nohturfft, J. L. Goldstein, M. S. Brown, Cell 87, 415-426 (1996). • 37. M. S. Brown, J. L. Goldstein, Cell 89, 331-340 (1997). • 38. M. M. Bryden, C. Perry, R. F. Keeler, Teratology 8, 18-28 (1973). • 39. M. L. Omnell, F. R. P. Sim, R. F. Keeler, L. C. Harne, K. W. Brown, Teratology 42, 105-119 (1990). • 40. Fertile chick eggs (white leghorn) were placed in a humidified incubator at 37.5° C in a rotating tray for 14 hours. […] The window was taped and the eggs incubated for an additional 4 days. The embryos were dissected in phosphate buffered saline (PBS, pH 7.2).

[3] = tested on: primary human lymphoblasts; experiment: Cholesterol Biosynthesis Assay (sterol profiles of cultured cells); type: cell-based; conditions: five days
[4] = tested on: endogenous Shh signaling; experiment: Midline neural plate/notochord explant assay of endogenous Shh signaling; type: cell-based, chick; conditions: midline explants, two days of culture
[5] = tested on: rat hepatoma cells; experiment: Cholesterol Esterification Assay (esterification of plasma membrane cholesterol); type: cell-based
Excerpt: Table 1. […] Table 1. Effects of synthetic and plant-derived compounds on cholesterol homeostasis. […]

[6] = read-out: Percent Inhibition (incorporation of label into cholesteryl ester*) ^3H-Cholesterol
[7] = read-out: Percent Inhibition (incorporation of label into cholesteryl ester*) ^14C-Oleic Acid

| Compound | concentration that inhibits the repression of Pax7 expression by 2 nM Shh-N [1] | doses at which HNF3β and Isl-1 induction are completely blocked [1] | intermediate levels at which induction of HNF3β is blocked while induction of Isl-1 is maintained or expanded [1] | Shh-Np production and accumulation of unprocessed precursor [2] | Percent Sterols: Cholesterol ([3]; 0.25 µM) | Percent Sterols: b. 7 Dehydrodesmosterol ([3]; 0.25 µM) | Percent Sterols: c. Cholesta-7,24-dien-3ß-ol ([3]; 0.25 µM) | Percent Sterols: e. Cholesta-8(14)-en-3ß-ol ([3]; 0.25 µM) | Total Sterols (µg/mg protein) ([3]; 0.25 µM) | Percent Sterols: 2. C28 Sterols ([3]; 0.5 µM) | Percent Sterols: 3. C29 Sterols ([3]; 0.5 µM) | Percent Sterols: Cholesterol ([3]; 0.5 µM) | Percent Sterols: b. 7 Dehydrodesmosterol ([3]; 0.5 µM) | Percent Sterols: c. Cholesta-7,24-dien-3ß-ol ([3]; 0.5 µM) | Percent Sterols: e. Cholesta-8(14)-en-3ß-ol ([3]; 0.5 µM) | Total Sterols (µg/mg protein) ([3]; 0.5 µM) | Percent Sterols: 2. C28 Sterols ([3]; 1.0 µM) | Percent Sterols: 3. C29 Sterols ([3]; 1.0 µM) | Percent Sterols: Cholesterol ([3]; 1.0 µM) | Percent Sterols: b. 7 Dehydrodesmosterol ([3]; 1.0 µM) | further results |
| --- | --- | --- | --- | --- | --- | --- | --- | --- | --- | --- | --- | --- | --- | --- | --- | --- | --- | --- | --- | --- | --- |
| CCN(CC)CCOc1ccc(C(O)(Cc2ccc(Cl)cc2)c2ccc(C)cc2)cc1 (stereo not drawn) [Triparanol, triparanol] | 0.25 µM | 0.5 µM | 0.25 µM | did not diminish Shh-Np production nor induce accumulation of unprocessed precursor | 56% | 6.0% | 3.1% | 9.1% | 4.1 µg/mg protein | 2.6% | 8.1% | 45% | 4.1% | 2.4% | 8.7% | 5.1 µg/mg protein | 1.5% | 5.5% | 51% | 2.9% | Percent Sterols: 2. C28 Sterols ([3]; 0.25 µM): 4.4%; Percent Sterols: 3. C29 Sterols ([3]; 0.25 µM): 7.8%; Percent Sterols: a. Desmosterol ([3]; 0.25 µM): 9.1%; Percent Sterols: d. Zymosterol ([3]; 0.25 µM): 9.3%; Percent Sterols: a. Desmosterol ([3]; 0.5 µM): 8.7%; Percent Sterols: d. Zymosterol ([3]; 0.5 µM): 27%; Percent Sterols: a. Desmosterol ([3]; 1.0 µM): 6.7%; Percent Sterols: c. Cholesta-7,24-dien-3ß-ol ([3]; 1.0 µM): 2.6%; Percent Sterols: d. Zymosterol ([3]; 1.0 µM): 23%; Percent Sterols: e. Cholesta-8(14)-en-3ß-ol ([3]; 1.0 µM): 7.3%; Total Sterols (µg/mg protein) ([3]; 1.0 µM): 3.1 µg/mg protein; Higher doses that fully inhibit HNF3β and Isl-1 induction [4]: 1.0 µM; Intermediate doses that block induction of HNF3β while permitting induction of Isl-1 [4]: 0.25 µM; inhibition at 2.5 µM [5, 6]: 49%; inhibition at 2.5 µM [5, 7]: 54%; inhibition at 5 µM [5, 6]: 57%; inhibition at 5 µM [5, 7]: 65%; inhibition at 10 µM [5, 6]: 79%; inhibition at 10 µM [5, 7]: 81% |
| Clc1ccccc1CNC[C@H]1CC[C@H](CNCc2ccccc2Cl)CC1 [AY9944, AY 9944] | 0.5 µM | 2.0 µM | 1.0 µM | did not diminish Shh-Np production nor induce accumulation of unprocessed precursor | 30% | 3.5% | 1.8% | 9.7% | 7.6 µg/mg protein | 1.1% | 3.3% | 33% | 3.0% | 1.9% | 14% | 8.3 µg/mg protein | 2.6% | 4.6% | 34% | 1.9% | Percent Sterols: f. 7 Dehydrocholesterol ([3]; 0.25 µM): 50%; Percent Sterols: g. Lathosterol ([3]; 0.25 µM): 6.2%; Percent Sterols: f. 7 Dehydrocholesterol ([3]; 0.5 µM): 36%; Percent Sterols: g. Lathosterol ([3]; 0.5 µM): 7.3%; Percent Sterols: c. Cholesta-7,24-dien-3ß-ol ([3]; 1.0 µM): 1.6%; Percent Sterols: e. Cholesta-8(14)-en-3ß-ol ([3]; 1.0 µM): 20%; Percent Sterols: f. 7 Dehydrocholesterol ([3]; 1.0 µM): 16%; Percent Sterols: g. Lathosterol ([3]; 1.0 µM): 7.9%; Percent Sterols: h. C27 Sterol 1 (mw 384) ([3]; 1.0 µM): 5.3%; Percent Sterols: i. C27 Sterol 2 (mw 382) ([3]; 1.0 µM): 6.0%; Total Sterols (µg/mg protein) ([3]; 1.0 µM): 8.3 µg/mg protein; Higher doses that fully inhibit HNF3β and Isl-1 induction [4]: 4.0 µM; Intermediate doses that block induction of HNF3β while permitting induction of Isl-1 [4]: 0.5 µM; inhibition at 2.5 µM [5, 6]: 39%; inhibition at 2.5 µM [5, 7]: 20%; inhibition at 5 µM [5, 6]: 56%; inhibition at 5 µM [5, 7]: 35%; inhibition at 10 µM [5, 6]: 68%; inhibition at 10 µM [5, 7]: 51% |
